Test results from patent US11312676B2, “Small molecule stimulators of steroid receptor coactivator proteins and their use in the treatment of cancer” (BAYLOR COLLEGE OF MEDICINE, priority 2014, dated 2022).

What was measured:
SRC-3 = biological target: T1, SRC-3 (Homo sapiens, UniProt Q9Y6Q9); assay: Gal4 luciferase reporter assay (pBIND-SRC-3 + pG5-LUC) in HeLa cells; format: cell-based
T1 construct: expressed in transfected cells; host or cells: HeLa
Procedure: (§1) The constructs expressing the Gal4 responsive luciferase reporter (pG5-luc), Gal4 DBD fusion with SRC-1, […] (pBIND-SRC-1/-2/-3), MMP2 or MMP13 promoter driven luciferase reporter (MMP2-luc, MMP13-luc) were prepared. Twenty-four hours before transfection, HeLa cells were plated in 24-well dishes. The indicated expression plasmids were transfected into cells using Lipofectamine 2000 according to the manufacturer's instructions.
(§2) After various compound treatments, cells were lysed in luciferase lysis buffer and assayed for luciferase activity using the ONE-Glo luciferase assay system (Promega, Madison, Wis.). All luciferase activities were normalized to protein concentration determined by Bradford assay (Bio-Rad, Hercules, Calif.).
HeLa cells were transfected with a Gal4 responsive luciferase reporter (pG5-luc) and a construct encoding SRC-1, SRC-2 or SRC-3 fused with the DNA binding domain of Gal4 (pBIND-SRC-1, pBIND-SRC-2 or pBIND-SRC-3) were treated with the indicated compounds.

VP16 = biological target: T2, VP16 (Human herpesvirus 1, UniProt P06492); assay: Gal4-VP16 + pG5-LUC luciferase assay in HeLa cells; format: cell-based; details: 24 hours, only at higher compound concentrations
T2 construct: expressed in transfected cells; host or cells: HeLa
T2 sequence (P06492 413-490): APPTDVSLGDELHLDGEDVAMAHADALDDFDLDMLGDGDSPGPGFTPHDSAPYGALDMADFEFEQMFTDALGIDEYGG

MMP2 promoter = assay: MMP2-luc reporter with SRC-3 expression vector in HeLa cells; format: cell-based; details: 24 hours
Procedure: as §1, §2

MMP13 promoter = assay: MMP13-luc reporter with SRC-3 expression vector in HeLa cells; format: cell-based; details: 24 hours
Procedure: as §1, §2

[1] = biological target: T3, receptor interacting domain (RID) of SRC-3 (Homo sapiens, UniProt Q9Y6Q9); assay: Fluorescence spectroscopy, intrinsic fluorescence quenching of GST SRC-3 RID; format: binding; details: 1.5 μM GST SRC-3 RID, excitation 278 nm; read-out: half-affecting concentration of intrinsic fluorescence quenching, SRC-3 RID
T3 construct: A total of 1.5 μM of GST SRC-3 RID, CID or bHLH was placed in a fluorescence cuvette; made in house
T3 sequence (Q9Y6Q9 582-840 limits assumed): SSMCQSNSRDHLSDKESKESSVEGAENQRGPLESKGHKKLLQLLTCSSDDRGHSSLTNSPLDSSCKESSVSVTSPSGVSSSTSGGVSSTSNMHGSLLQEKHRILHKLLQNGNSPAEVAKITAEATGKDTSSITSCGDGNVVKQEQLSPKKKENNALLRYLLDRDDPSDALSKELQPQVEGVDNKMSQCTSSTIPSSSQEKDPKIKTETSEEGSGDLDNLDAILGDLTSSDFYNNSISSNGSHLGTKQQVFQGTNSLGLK
Procedure: Fluorescence spectrometric measurements were performed on a SLM 48000S fluorescence spectrophotometer (SLM-Aminco, Rochester, N.Y.) and an Agilent Cary Eclipse Fluorescence spectrophotometer (Agilent Technologies, Inc., Santa Clara, Calif.) using the GST fusion proteins of different portions of SRC-3 expressed and purified. A total of 1.5 μM of GST SRC-3 RID, CID or bHLH was placed in a fluorescence cuvette and excited by UV light at a wavelength of 278 nm with a 2 nm bandwidth and the emission spectra were recorded from 290 nm to above 500 nm with a bandwidth of 4 nm. The aliquot size of test compound was maintained below 5% of the total sample volume in order to minimize the effects of dilution.

H1299 (lung) cells = assay: MTS cell viability assay, H1299; format: cell-based; details: H1299, 48 hours
Procedure: (§3) Cell lines were maintained in DMEM (HeLa, MCF-7, HepG2), RPMI 1640 (H1299), or DMEM/F12 (PC-3) supplemented with 10% fetal calf serum, penicillin and streptomycin (100 U/ml). Primary mouse hepatocytes were isolated and cultured. Mouse embryonic fibroblasts (MEF) were cultured in DMEM. All cells were maintained at 37° C. under 5% CO2.
(§4) Cells were seeded in 96-well plates and allowed to reach 70% to 80% confluence. After indicated compound treatments, relative numbers of viable cells were measured by MTS assay using the Cell Titer 96 Aqueous One Solution Cell Proliferation Assay (Promega).

[2] = tested on: mouse primary hepatocytes; assay: MTS cell viability assay, mouse primary hepatocytes; format: cell-based; details: 48 hours
Procedure: as §3, §4

MEF cells = assay: MTS cell viability assay, mouse embryonic fibroblasts; format: cell-based; details: 48 hours
Procedure: as §3, §4

HeLa cells [3] = assay: MTS cell viability assay, HeLa cells; format: cell-based; details: SRC-3 KO vs WT HeLa, 24 hours
HeLa cells [4] = assay: Cytoplasmic vacuolization of cancer cells; format: cell-based; details: HeLa, MCF-7 or MDA-MB-231 cells
Abl kinase = assay: CrkL (Y207) phosphorylation as marker for Abl activation in HeLa cells; format: cell-based; details: 1 hour and 4 hours
Procedure: For Western blotting, cells were harvested and lysed in lysis buffer (50 mM Tris, pH 8.0, 150 mM NaCl, 10% glycerol, 0.5% NP40, protease and phosphatase inhibitor) and then centrifuged for 15 min at 14000 rpm at 4° C. After total cellular protein concentration was determined by Bradford analysis (Bio-Rad, Hercules, Calif.), protein lysates were loaded onto and resolved by sodium dodecyl sulfate-polyacrylamide gel electrophoresis (SDS-PAGE) and transferred to PVDF membranes (BioRad) which were blocked and incubated with indicated antibodies. For immunoprecipitation, 10 μg of plasmid encoding FLAG-SRC-3 was transfected into HeLa cells with 90% confluence in one 10 cm plate with lipofectamine 2000 (Invitrogen). Twenty-four hours after transfection, the cells were treated with MCB-613 for one hour and lysed with lysis buffer (25 mM Tris-Cl pH7.5, 150 mM NaCl, 5% glycerol, 1 mM EDTA, 1% Triton X-100, protease and phosphatase inhibitor) at 4° C. After a 30-second sonication, the lysate was cleared by centrifugation at 14000 rpm at 4° C. for 15 minutes and was incubated with anti-Flag-M2 agarose affinity gel (Sigma) for four hours. The agarose gel was washed four times with washing buffer (25 mM Tris pH 8.0, 150 mM NaCl, 1 mM EDTA, 1% Triton X-100) and resuspended with SDS loading buffer for Western blotting. […]

MMP13 expression = assay: qRT-PCR of endogenous MMP13 in MDA-MB-231 cells; format: cell-based; details: 24 hours
SRC-1 = SRC-1 (Homo sapiens, UniProt Q15788); assay: Gal4 luciferase reporter assay (pBIND-SRC-1 + pG5-LUC) in HeLa cells; format: cell-based; parameters: expressed in transfected cells; host or cells: HeLa; details: 24-hour treatment, 5-8 μM, maximum over SRC-1/-2/-3
SRC-1, sequence (Q15788 whole entry, the tested form may be a part): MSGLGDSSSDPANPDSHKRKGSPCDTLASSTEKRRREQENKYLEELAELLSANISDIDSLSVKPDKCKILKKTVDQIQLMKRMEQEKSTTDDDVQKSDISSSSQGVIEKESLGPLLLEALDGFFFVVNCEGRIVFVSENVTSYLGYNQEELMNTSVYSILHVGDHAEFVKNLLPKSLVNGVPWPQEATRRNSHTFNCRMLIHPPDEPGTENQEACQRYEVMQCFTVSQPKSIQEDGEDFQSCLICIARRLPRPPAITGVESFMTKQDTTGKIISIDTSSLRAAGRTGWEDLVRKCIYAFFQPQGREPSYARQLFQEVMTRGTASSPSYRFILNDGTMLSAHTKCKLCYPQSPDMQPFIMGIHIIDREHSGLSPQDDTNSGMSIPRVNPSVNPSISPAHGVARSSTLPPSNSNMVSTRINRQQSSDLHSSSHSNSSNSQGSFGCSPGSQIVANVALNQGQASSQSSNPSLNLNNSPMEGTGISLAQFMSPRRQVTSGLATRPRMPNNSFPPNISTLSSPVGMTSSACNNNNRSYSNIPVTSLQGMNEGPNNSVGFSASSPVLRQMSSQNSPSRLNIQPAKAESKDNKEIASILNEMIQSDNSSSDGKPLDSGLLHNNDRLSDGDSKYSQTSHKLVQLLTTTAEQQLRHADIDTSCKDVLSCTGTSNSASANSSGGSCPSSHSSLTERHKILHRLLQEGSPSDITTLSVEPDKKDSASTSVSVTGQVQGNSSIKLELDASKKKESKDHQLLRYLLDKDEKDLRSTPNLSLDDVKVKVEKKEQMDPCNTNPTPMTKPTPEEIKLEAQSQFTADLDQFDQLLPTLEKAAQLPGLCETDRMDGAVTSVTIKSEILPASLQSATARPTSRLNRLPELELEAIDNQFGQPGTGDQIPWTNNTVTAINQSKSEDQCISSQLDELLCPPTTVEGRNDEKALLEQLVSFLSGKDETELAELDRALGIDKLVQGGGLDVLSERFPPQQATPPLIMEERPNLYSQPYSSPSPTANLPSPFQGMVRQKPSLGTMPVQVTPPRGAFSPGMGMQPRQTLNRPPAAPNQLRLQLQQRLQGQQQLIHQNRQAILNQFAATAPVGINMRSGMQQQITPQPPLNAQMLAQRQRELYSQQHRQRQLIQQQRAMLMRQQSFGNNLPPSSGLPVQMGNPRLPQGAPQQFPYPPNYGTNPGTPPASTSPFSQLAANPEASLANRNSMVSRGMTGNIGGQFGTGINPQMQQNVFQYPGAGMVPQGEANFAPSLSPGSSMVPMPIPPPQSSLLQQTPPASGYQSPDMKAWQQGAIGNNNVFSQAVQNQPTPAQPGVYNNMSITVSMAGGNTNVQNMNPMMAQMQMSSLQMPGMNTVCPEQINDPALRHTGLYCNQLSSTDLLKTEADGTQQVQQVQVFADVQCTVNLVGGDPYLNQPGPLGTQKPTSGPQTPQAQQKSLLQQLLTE
Procedure: as §1, §2

T1 sequence (Q9Y6Q9 whole entry, the tested form may be a part): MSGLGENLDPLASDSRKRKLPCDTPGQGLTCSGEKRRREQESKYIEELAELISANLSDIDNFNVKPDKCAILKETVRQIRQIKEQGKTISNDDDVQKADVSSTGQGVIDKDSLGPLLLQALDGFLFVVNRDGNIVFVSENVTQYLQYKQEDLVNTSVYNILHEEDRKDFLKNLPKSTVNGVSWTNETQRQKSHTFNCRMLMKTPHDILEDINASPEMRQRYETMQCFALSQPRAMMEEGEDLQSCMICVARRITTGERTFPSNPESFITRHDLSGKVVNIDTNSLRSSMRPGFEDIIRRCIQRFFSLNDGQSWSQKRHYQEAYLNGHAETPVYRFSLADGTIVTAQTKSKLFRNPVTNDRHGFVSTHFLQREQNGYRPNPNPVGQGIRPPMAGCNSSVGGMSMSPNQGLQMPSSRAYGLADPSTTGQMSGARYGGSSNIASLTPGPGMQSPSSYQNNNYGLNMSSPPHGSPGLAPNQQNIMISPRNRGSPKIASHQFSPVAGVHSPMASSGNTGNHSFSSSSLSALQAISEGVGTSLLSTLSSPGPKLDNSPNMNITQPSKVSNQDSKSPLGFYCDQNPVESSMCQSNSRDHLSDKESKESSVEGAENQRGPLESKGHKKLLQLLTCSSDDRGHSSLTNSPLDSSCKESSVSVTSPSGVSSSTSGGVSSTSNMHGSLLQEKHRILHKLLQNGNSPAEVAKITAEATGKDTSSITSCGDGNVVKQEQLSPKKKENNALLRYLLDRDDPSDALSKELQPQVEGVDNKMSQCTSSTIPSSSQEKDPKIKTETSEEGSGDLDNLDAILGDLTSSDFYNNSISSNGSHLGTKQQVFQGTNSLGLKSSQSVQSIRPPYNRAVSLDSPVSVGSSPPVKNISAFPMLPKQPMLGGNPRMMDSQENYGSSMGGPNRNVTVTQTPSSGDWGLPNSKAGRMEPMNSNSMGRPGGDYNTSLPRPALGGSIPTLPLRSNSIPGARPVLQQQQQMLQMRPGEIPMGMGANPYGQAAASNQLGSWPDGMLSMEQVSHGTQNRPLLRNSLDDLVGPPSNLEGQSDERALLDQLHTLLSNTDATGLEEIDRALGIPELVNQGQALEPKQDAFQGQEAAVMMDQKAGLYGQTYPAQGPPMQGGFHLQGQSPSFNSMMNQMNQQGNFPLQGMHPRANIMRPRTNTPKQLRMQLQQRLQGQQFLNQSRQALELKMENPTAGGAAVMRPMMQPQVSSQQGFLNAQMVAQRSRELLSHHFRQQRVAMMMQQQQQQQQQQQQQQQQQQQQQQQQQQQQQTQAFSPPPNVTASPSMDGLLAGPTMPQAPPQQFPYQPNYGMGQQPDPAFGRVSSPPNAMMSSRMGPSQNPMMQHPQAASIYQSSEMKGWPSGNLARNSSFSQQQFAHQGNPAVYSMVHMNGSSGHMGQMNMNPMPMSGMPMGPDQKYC

Compound: CCC1CC(=Cc2cccnc2)C(=O)C(=Cc2cccnc2)C1 (centres unmarked) [MCB-613, 4-Ethyl-2,6-bis-pyridin-3-ylmethylene-cyclohexanone]
- induction in the activity of pBIND-SRC-3 (SRC-3; 24-hour treatment, 5-8 μM, maximum over SRC-1/-2/-3): ≤ 160 fold
- SRC activity after 4 hours of treatment (SRC-3; 4 hours, 6-10 μM): significant increase
- activity of GAL4-VP16 fusion protein (VP16): minimally increasing the activity
- SRC-3's coactivation of the MMP2 promoter (MMP2 promoter): greatly enhanced
- SRC-3's coactivation of the MMP13 promoter (MMP13 promoter): greatly enhanced
- EC50 [1]: 10 µM
- cytotoxicity, cell viability (H1299 (lung) cells): efficiently kill
- cytotoxicity to normal cells [2]: resistant
- cytotoxicity to normal cells (MEF cells): resistant
- viability of SRC-3 KO HeLa cells compared with WT cells (HeLa cells [3]): less affected
- vacuolization in cancer cells (HeLa cells [4]): induced extensive vacuolization
- activation of Abl (CrkL Y207 phosphorylation) (Abl kinase): activation of Abl could be observed as early as one hour
- endogenous MMP13 expression (MMP13 expression): activated
- induction in the activity of pBIND-SRC-1 (SRC-1): ≤ 160 fold
